Tests used:
[1] = tested on: CWR22R; experiment: Antitumor activity against human 22Rv1 cells xenografted in NOD/SCID mouse assessed as tumor growth inhibition at 5 mg/kg, ip administered five times a week for 2 weeks and measured two times per week; assay type: functional; conditions: 22Rv1, 336 h, read-out: TGI
[2] = molecular target: T1, Nuclear receptor ROR-gamma (Homo sapiens, UniProt P51449); experiment: Inhibition of Gal4-fused RORgamma LBD (unknown origin) expressed in HEK293T cells incubated for 48 hrs by luciferase based assay; assay type: cell-based
T1 sequence (P51449 whole entry): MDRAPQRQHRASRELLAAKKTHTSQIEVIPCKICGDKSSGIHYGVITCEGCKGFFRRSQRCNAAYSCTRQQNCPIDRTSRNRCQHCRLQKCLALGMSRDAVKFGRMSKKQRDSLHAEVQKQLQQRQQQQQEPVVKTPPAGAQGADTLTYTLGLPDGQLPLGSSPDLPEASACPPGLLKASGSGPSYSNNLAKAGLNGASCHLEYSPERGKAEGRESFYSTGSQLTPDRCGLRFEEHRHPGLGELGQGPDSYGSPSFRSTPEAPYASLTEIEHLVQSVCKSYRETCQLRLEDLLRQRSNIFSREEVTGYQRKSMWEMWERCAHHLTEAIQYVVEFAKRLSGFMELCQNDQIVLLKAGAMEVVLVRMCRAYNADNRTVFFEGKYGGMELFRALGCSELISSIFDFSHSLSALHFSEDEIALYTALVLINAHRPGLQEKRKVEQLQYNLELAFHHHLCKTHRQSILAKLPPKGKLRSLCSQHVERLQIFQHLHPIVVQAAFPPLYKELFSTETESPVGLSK

Row | IC50 [2] | SMILES | inhibition in vivo at 5 mg/kg [1]
1 | – | CCS(=O)(=O)c1ccc(CC(=O)Nc2cc(Cl)c(-c3ccccc3OC(F)(F)F)c(Cl)c2)cc1 | 31.1%
2 | 2000 nM | CCS(=O)(=O)c1ccc(CC(=O)Nc2ccc(-c3ccccc3NC(=O)CCl)c(C)c2)cc1 | –
3 | 5440 nM | C=CC(=O)Nc1ccccc1-c1ccc(NC(=O)c2ccc(S(C)(=O)=O)cn2)cc1C | –
4 | 2020 nM | C=CC(=O)Nc1ccccc1-c1ccc(NC(=O)Cc2cccc(C#N)c2)cc1C | –
5 | 2320 nM | C=CC(=O)Nc1ccccc1-c1ccc(NC(=O)Cc2ccc(C#N)cc2)cc1C | –

Reference: ChEMBL document CHEMBL5537185, “Discovery of the First-in-Class RORγ Covalent Inhibitors for Treatment of Castration-Resistant Prostate Cancer” (J Med Chem, 2024)
